Values after ≈ are worked out from the molar mass of the structure shown. Each block holds one molecule with its values, some of them ahead of it. Primed or numbered codes have the meaning given here. FITC′ = not defined here
Columns and labels:
[1] = molecular target: T1, CIB1 and αIIb interaction (CIB1-GST : F-αIIb peptide) (Homo sapiens, UniProt Q99828); test: FP assay, 1536-well qHTS format (primary and confirmatory screen); format: binding; details: over the concentration range tested
T1 construct: made in house; host or cells: BL-21 plus RIL cells (E. coli)
T1 sequence (Q99828 1-191): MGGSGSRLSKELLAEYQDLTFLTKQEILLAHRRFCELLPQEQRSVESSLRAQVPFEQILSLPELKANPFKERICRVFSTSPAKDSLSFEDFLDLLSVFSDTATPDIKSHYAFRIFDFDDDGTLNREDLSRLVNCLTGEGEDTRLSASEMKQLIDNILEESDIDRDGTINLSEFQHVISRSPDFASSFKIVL

[2] = molecular target: T2, CIB1-(His)6 (Homo sapiens, UniProt Q99828); test: Microscale thermophoresis (MST) protein and small-molecule binding
T2 construct: made in house
T2 sequence (Q99828 1-191): T1 sequence (Q99828 1-191)
Method: Determining a direct measurement of a molecule’s binding interaction with its target is a vital parameter for characterizing a chemical probe. We employed microscale thermophoresis (MST) for this purpose, leveraging its sensitivity and capacity to deliver quantitative data on the binding interaction.[35] […] We began by testing increasing amounts of the compound(s) and incubating them with the fluorescently labeled CIB1-(His)6, followed by the detection of the MST traces on the NT automated instrument (for more details see Materials and Methods Section). […] We were able to rule out compound interference with the histidine tag on CIB1 and/or the fluorophore used for the MST assay by testing the compounds with a fluorescently labeled hexa-histidine peptide (Figure S8B).
The binding affinity of the compounds to the CIB1-(His)6 protein was evaluated using microscale thermophoresis (MST). The recombinant protein was labeled with a fluorophore using Monolith His-tag labeling RED-tris-NTA second Generation kit (Nanotemper Technologies, Munich, Germany) following the manufacturer’s protocol. Compounds were titrated in a 2-fold dilution series (16 points, final concentration range of 6.1 nM to 200 μM) and incubated with the same volume of 50 nM (final concentration; 25 nM RED-tris-NTA) labeled recombinant protein for 30 min at RT (20 μL final assay volume). […] The dissociation constant (Kd) values were calculated by fitting the thermophoresis signal at 20 s of the thermograph using the MO Affinity Analysis software (Nanotemper Technologies, Munich, Germany) and confirmed using GraphPad Prism.

[3] = molecular target: T3, CIB1-(His)6 : F-αIIb peptide (Homo sapiens, UniProt Q99828); test: MST competitive binding study
T3 construct: made in house
T3 sequence (Q99828 1-191): T1 sequence (Q99828 1-191)
Method: We sought to resolve this discrepancy by performing a competition binding study similar to the conditions of the FP HTS assay by utilizing the F-αIIb probe.
Figure 4 MST competitive binding assay. We selected 200 nM F-αIIb and a CIB1 concentration of 4 μM and tested both compounds. […] Panel (B) highlights the concentration range in which we observe different activities between the two compounds.
The binding affinity of the compounds to the CIB1-(His)6 protein in the presence of αIIb peptide was evaluated using FITC-labeled αIIb as well. Following manufacturer’s recommendation,[66] we first determined a minimum concentration of F-αIIb by performing a titration of the fluorophore (1 μM, 1:2, 8-points; final concentration range of 7.8 nM to 1 μM) in a 10 μL assay volume. Solutions were placed in standard capillaries and evaluated for the fluorescent signal using the Monolith NT.115 instrument. […] CIB1-(His)6 protein was titrated in a 2-fold dilution series (16-points, final concentration range of 15 nM to 500 μM), at a final volume of 12.5 μL. An equal volume of [2×] […] Solutions were placed in standard capillaries, incubated for approximately 1 h, and evaluated for a fluorescent signal with 50% LED excitation power, 20, 40, or 60% MST power (low, medium, high, respectively), MST on-time of 30 s, and off-time of 5 s.
Compounds were titrated in a 2-fold dilution series (16 points, final concentration range of 6.1 nM to 200 μM) and mixed with an equal volume CIB1-(His)6 protein and F-αIIb peptide (final concentrations of 4 μM and 200 nM, respectively). Solutions were incubated for 1 h at RT, then placed in standard capillaries, and evaluated for fluorescent signal (in triplicate) at the following parameters: 50% LED excitation power, 40% MST power, MST on-time of 30 s, and off-time of 5 s using Monolith NT.115 instrument. Dissociation constant (Kd) values were calculated by fitting the thermophoresis signal at 20 s of the thermograph using the MO Affinity Analysis software (Nanotemper Technologies, Munich, Germany) and confirmed using Graphpad Prism 7.

[4] = test system: washed human platelets; test: Human platelet aggregation assay (thrombin-induced); format: cell-based; details: for inhibition at 10 µM: Homo sapiens, Platelet, single concentration of 10 μM (n = 3), thrombin; for Thrombin Assay 10 µM (%): platelet aggregation inhibition at 10 µM
From the text: A classical challenge in target-based drug discovery is moving from biochemical to cellular assay and the essential step of determining if the compounds of interest can perform in a cellular context. After characterization of the compounds in a series of biochemical assay formats, our next step was to assess their activity in a cellular environment. Our previous studies have shown that the interaction of the cytoplasmic domain of integrin αIIbβ3, a key regulator of platelet aggregation, with CIB1, is involved in downstream signaling in platelet activation and aggregation. We sought to determine whether our candidate compounds were inhibiting this interaction by evaluating them for platelet function in a human platelet aggregation assay. We prepared platelet-rich plasma (PRP) and washed the platelets as previously described[44] and then performed a platelet aggregation assay using the washed platelet suspensions (2 × 10^8/platelets/mL) followed by the recording of aggregation traces (see Materials and Methods Section). To induce platelet aggregation, 0.03 U/mL of thrombin, a physiological agonist of platelet activation, was used.
Figure 6 Effect of compounds on human platelet activation. Representative platelet aggregation tracings of washed human platelet suspensions pretreated for 30 min at 37 °C with vehicle (DMSO) or compounds at indicated concentrations followed by activation with thrombin (0.03–0.1 U/mL). Panel (A): NCGC00071855. Panel (B–D): NCGC00351170. Panel (E): CD62P exposure was in the presence of NCGC00351170. Data represents mean ± SEM, n = 4 individual experiments; ns = non significant *P < 0.05, ***P < 0.001, ****P < 0.0001.
Whole blood was drawn by venipuncture from healthy adult volunteers (of both gender and race) with informed consent. Approval was obtained from the institutional review boards of Thomas Jefferson University, according to the Declaration of Helsinki. Blood was collected in acidified citrate dextrose as an anticoagulant. Platelet-rich plasma (PRP) and washed platelets were prepared, as previously described.[44] Platelet aggregation was performed using washed platelet suspensions containing 2 × 10^8 platelets/mL using a Chrono-Log Lumi-Aggregometer (Chrono-Log), as described previously.[11] Aggregation traces were recorded by using Aggrolink software (Chrono-Log). Thrombin-induced P-selectin (CD62P) exposure was performed using Accuri C6 flowcytometer (BD Bioscience) as described previously.[11]
Figure S9: Effect of compounds on human platelet activation. Representative platelet aggregation
tracings of washed human platelet suspensions treated with vehicle (DMSO) or indicated
compounds at 10 μM for 30 minutes at 37 °C followed by activation with thrombin (0.03U/mL).

[5] = In vitro ADME: solubility; format: physicochemical; details: read-out: Solubility
[6] = In vitro ADME: PAMPA permeability
[7] = molecular target: T4, CIB1 and αIIb interaction (GST-CIB1 : F-αIIb peptide) (Homo sapiens, UniProt Q99828); test: FP assay, 384-well format (screen); format: binding; details: 384-well FP assay; Table 1; read-out: FP assay IC50
T4 construct: made in house; host or cells: BL-21 plus RIL cells (E. coli)
T4 sequence (Q99828 1-191): T1 sequence (Q99828 1-191)

[8] = In vitro ADME: RLM stability; details: rat liver microsomes; read-out: Rat Liver Microsome Stability (t1/2)
[9] = molecular target: T5, CIB1-(His)6 protein (UniProt Q99828 9-191); test: MST; 200 nM F-αIIb with CIB1-(His)6 titrated 15 nM to 500 μM (16 points); about 1 h; medium (40%) MST power, Monolith NT.115; details: both partners purified
T5 construct: source: purified using a Ni-NTA resin column
T5 sequence: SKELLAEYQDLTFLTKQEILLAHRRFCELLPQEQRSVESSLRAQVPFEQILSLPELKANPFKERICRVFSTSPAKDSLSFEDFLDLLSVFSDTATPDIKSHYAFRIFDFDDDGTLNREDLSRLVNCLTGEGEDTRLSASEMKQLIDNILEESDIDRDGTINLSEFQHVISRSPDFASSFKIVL

activity in the qHTS assay [1]: inactive
Kd ([2]; MST, fluorescently labeled CIB1-(His)6 50 nM, read-out: equilibrium dissociation constant (Kd)): 6.7 µM
difference in binding affinity ([2]; NCGC00351154 vs NCGC00351170 Kd): 2.3 fold
EC50 ([3]; 200 nM F-αIIb, 4 μM CIB1-(His)6, n = 3/concentration): 29 µM
difference between the two compounds (EC50) ([3]; NCGC00351154 vs NCGC00351170): 13.8 fold
solubility [5]: 1 µg/mL (≈ 2.24 µM)
Papp [6]: < 3 ×10⁻⁶ cm/s
Molecule: O=C(c1ccc(-c2ccccc2)cc1)c1no[n+]([O-])c1C(=O)c1ccc(-c2ccccc2)cc1 [NCGC00351154-01]
inhibition at 10 µM [4]: 16%
Thrombin Assay 10 µM (%) [4]: 16%

IC50 [7]: 6.68 µM
solubility [5]: < 1 µg/mL
Papp [6]: < 12.4 ×10⁻⁶ cm/s
half-life [8]: 2.34 min
Molecule: O=C(c1ccccc1C(F)(F)F)c1no[n+]([O-])c1C(=O)c1ccccc1C(F)(F)F [NCGC00351167-01]
inhibition at 10 µM [4]: 84%
Thrombin Assay 10 µM (%) [4]: 84%

Kd [9]: 2600 nM
B1: FITC-labeled αIIb peptide from the cytoplasmic domain of integrin αIIb (peptide)
peptide: Ac-LVLAMWKVGFFKRNRK-{FITC′}
notes: integrin αIIb, stretch at the start of the cytoplasmic domain; last printed residue of the peptide; The C-terminal K probably carries the FITC (surmised); also called F-αIIb; F-αIIb peptide; source: synthetic peptide (custom synthesized, Peptide 2.0, purity 95.83%)

From publication PMC11249646, “Small-Molecule Disruptors of the Interaction between Calcium- and Integrin-Binding Protein 1 and Integrin αIIbβ3 as Novel Antiplatelet Agents” (ACS Pharmacology & Translational Science, 2024)
